Data published in ChEMBL document CHEMBL6096703 (J Med Chem, 2025).

What was measured:
[1] = Tmax in male Balb/c mouse at 1 mg/kg, po measured upto 96 hrs by LC-MS/MS analysis; format: ADME, organism-based; details: in vivo
[2] = molecular target: T1, Poly [ADP-ribose] polymerase 1 (Homo sapiens, UniProt P09874); assay: Inhibition of PARP1 (unknown origin) preincubated with compound for 10 mins followed by DNA and NAD+ addition and measured after 60 mins by chemiluminescence based envision reader analysis
[3] = molecular target: Poly [ADP-ribose] polymerase 2 (Homo sapiens, UniProt Q9UGN5); assay: Inhibition of PARP2 (unknown origin) preincubated with compound for 10 mins followed by DNA and NAD+ addition and measured after 60 mins by chemiluminescence based envision reader analysis
MDA-MB-436 [4] = assay: Antiproliferative activity against human MDA-MB-436 cells assessed as inhibition of cell proliferation at 100 nM incubated for 7 days by CCK-8 assay relative to control; format: functional; details: MDA-MB-436, 168 h, time 7 day
[5] = Clearance in male Balb/c mouse at 1 mg/kg, iv measured upto 96 hrs by LC-MS/MS analysis; format: ADME, organism-based; details: in vivo, iv, 1 mg/kg, 96 h
[6] = Apparent volume of distribution in male Balb/c mouse at 1 mg/kg, po measured upto 96 hrs by LC-MS/MS analysis; format: ADME, organism-based; details: in vivo
[7] = Tmax in rat at 2.5 mg/kg, iv measured upto 96 hrs by LC-MS/MS analysis; format: ADME, organism-based; details: in vivo
[8] = Half life in rat at 2.5 mg/kg, po measured upto 96 hrs by LC-MS/MS analysis; format: ADME, organism-based; details: in vivo
[9] = Clearance in rat at 2.5 mg/kg, po measured upto 96 hrs by LC-MS/MS analysis; format: ADME, organism-based; details: in vivo
[10] = Apparent volume of distribution in rat at 2.5 mg/kg, po measured upto 96 hrs by LC-MS/MS analysis; format: ADME, organism-based; details: in vivo
[11] = AUC(0 to t) in rat at 2.5 mg/kg, po measured upto 96 hrs by LC-MS/MS analysis; format: ADME, organism-based; details: in vivo
[12] = Oral bioavailability in rat at 2.5 mg/kg measured upto 96 hrs by LC-MS/MS analysis; format: ADME, organism-based; details: in vivo
[13] = molecular target: T1, Poly [ADP-ribose] polymerase 1; assay: Inhibition of PARP1 in wild type human A549 cells preincubated with compound for 1 hr followed by H2O2 addition and measured after 5 mins by PARylation inhibition assay; format: cell-based
[14] = molecular target: T1, Poly [ADP-ribose] polymerase 1; assay: Inhibition of PARP1 in PARP2 knockout human A549 cells preincubated with compound for 1 hr followed by H2O2 addition and measured after 5 mins by selective targeting PARylation inhibition assay; format: cell-based
MDA-MB-436 [15] = assay: Inhibition of colony formation in human MDA-MB-436 cells assessed as reduction in survival rate incubated for 10 days by crystal violet staining based assay; format: functional, cell-based; details: dose 0.1-100 nM, time 10.0 day
MDA-MB-436 [16] = assay: Induction of apoptosis in human MDA-MB-436 cells assessed as late apoptotic cells at 1 nM incubated for 3 days by Annexin V/ PI staining based flow cytometry (reference value: 6.57%); format: functional; details: time 3 day
MDA-MB-436 [17] = assay: Induction of apoptosis in human MDA-MB-436 cells assessed as late apoptotic cells at 100 nM incubated for 3 days by Annexin V/ PI staining based flow cytometry (reference value: 6.57%); format: functional; details: time 3 day
MDA-MB-436 [18] = assay: Induction of cell cycle arrest in human MDA-MB-436 cells assessed as accumulation of cells at S phase at 10 nM incubated for 3 days by PI staining based flow cytometric analysis (Rvb =18.94%); format: functional; details: time 3 day
MDA-MB-436 [19] = assay: Induction of cell cycle arrest in human MDA-MB-436 cells assessed as accumulation of cells at S phase at 100 nM incubated for 3 days by PI staining based flow cytometric analysis (Rvb =18.94%); format: functional; details: time 3 day
MDA-MB-436 [20] = assay: Induction of cell cycle arrest in human MDA-MB-436 cells assessed as accumulation of cells at G0/G1 phase at 1 nM incubated for 3 days by PI staining based flow cytometric analysis (Rvb =56.18%); format: functional; details: time 3 day
MDA-MB-436 [21] = assay: Induction of cell cycle arrest in human MDA-MB-436 cells assessed as accumulation of cells at G0/G1 phase at 100 nM incubated for 3 days by PI staining based flow cytometric analysis (Rvb =56.18%); format: functional; details: time 3 day
MDA-MB-436 [22] = assay: Induction of cell cycle arrest in human MDA-MB-436 cells assessed as accumulation of cells at G2/M phase at 1 nM incubated for 3 days by PI staining based flow cytometric analysis (Rvb =24.88%); format: functional; details: time 3 day
MDA-MB-436 [23] = assay: Antitumor activity against human MDA-MB-436 cells xenografted in female NOD/SCID mouse assessed as inhibition of tumor growth administered orally once every other day for 28 days; format: functional, cell-based; details: dose 0.3-3 mg/kg, route po, time 28.0 day
[24] = Toxicity in female NOD/SCID mouse xenografted with human MDA-MB-436 cells assessed as histological changes in liver at 3 mg/kg, po administered once every other day for 28 days by H and E staining based analysis; format: organism-based; details: in vivo, 672 h, time 28 day
[25] = Toxicity in female NOD/SCID mouse xenografted with human MDA-MB-436 cells assessed as histological changes in lung at 3 mg/kg, po administered once every other day for 28 days by H and E staining based analysis; format: organism-based; details: in vivo, 672 h, time 28 day
[26] = Acute toxicity in Kunming mouse assessed as change in body weight at 30 to 100 mg/kg administered via gavage once every other day for 14 days; format: organism-based; details: in vivo, po, 336 h, dose 30-100 mg/kg, time 14 day
[27] = Acute toxicity in Kunming mouse assessed as change in liver structure at 300 mg/kg administered via gavage for 14 days by H and E staining based analysis; format: organism-based; details: in vivo, po, 336 h, time 14 day
[28] = Acute toxicity in Kunming mouse assessed as change in cellular morphology of lung at 100 mg/kg administered once every other day via gavage for 14 days by H and E staining based analysis; format: organism-based; details: in vivo, po, 336 h, time 14 day
[29] = Acute toxicity in Kunming mouse assessed as change in cellular morphology of kidney at 100 mg/kg administered once every other day via gavage for 14 days by H and E staining based analysis; format: organism-based; details: in vivo, po, 336 h, time 14 day
[30] = Sub-acute toxicity in Kunming mouse assessed as change ALB2 level at 100 to 300 mg/kg administered via gavage for 14 days; format: organism-based; details: in vivo, po, 336 h, dose 100-300 mg/kg, time 14 day
[31] = Sub-acute toxicity in Kunming mouse assessed as change LDH2 level at 100 to 300 mg/kg administered via gavage for 14 days; format: organism-based; details: in vivo, po, 336 h, dose 100-300 mg/kg, time 14 day
[32] = Sub-acute toxicity in Kunming mouse assessed as change CK level at 30 to 100 mg/kg administered via gavage once every other day for 14 days; format: organism-based; details: in vivo, po, 336 h, dose 30-100 mg/kg, time 14 day
[33] = Sub-acute toxicity in Kunming mouse assessed as change LDH2 level at 30 to 100 mg/kg administered via gavage once every other day for 14 days; format: organism-based; details: in vivo, po, 336 h, dose 30-100 mg/kg, time 14 day
[34] = Sub-acute toxicity in Kunming mouse assessed as change UREAL level at 30 to 100 mg/kg administered via gavage once every other day for 14 days; format: organism-based; details: in vivo, po, 336 h, dose 30-100 mg/kg, time 14 day
MDA-MB-436 [35] = assay: Antitumor activity against luciferase tagged human MDA-MB-436 cells xenografted in female NOD-SCID mouse assessed as median survival time at 10 mg/kg, po administered once a day for 34 days; format: functional; details: time 34 day

T1 sequence (P09874 whole entry): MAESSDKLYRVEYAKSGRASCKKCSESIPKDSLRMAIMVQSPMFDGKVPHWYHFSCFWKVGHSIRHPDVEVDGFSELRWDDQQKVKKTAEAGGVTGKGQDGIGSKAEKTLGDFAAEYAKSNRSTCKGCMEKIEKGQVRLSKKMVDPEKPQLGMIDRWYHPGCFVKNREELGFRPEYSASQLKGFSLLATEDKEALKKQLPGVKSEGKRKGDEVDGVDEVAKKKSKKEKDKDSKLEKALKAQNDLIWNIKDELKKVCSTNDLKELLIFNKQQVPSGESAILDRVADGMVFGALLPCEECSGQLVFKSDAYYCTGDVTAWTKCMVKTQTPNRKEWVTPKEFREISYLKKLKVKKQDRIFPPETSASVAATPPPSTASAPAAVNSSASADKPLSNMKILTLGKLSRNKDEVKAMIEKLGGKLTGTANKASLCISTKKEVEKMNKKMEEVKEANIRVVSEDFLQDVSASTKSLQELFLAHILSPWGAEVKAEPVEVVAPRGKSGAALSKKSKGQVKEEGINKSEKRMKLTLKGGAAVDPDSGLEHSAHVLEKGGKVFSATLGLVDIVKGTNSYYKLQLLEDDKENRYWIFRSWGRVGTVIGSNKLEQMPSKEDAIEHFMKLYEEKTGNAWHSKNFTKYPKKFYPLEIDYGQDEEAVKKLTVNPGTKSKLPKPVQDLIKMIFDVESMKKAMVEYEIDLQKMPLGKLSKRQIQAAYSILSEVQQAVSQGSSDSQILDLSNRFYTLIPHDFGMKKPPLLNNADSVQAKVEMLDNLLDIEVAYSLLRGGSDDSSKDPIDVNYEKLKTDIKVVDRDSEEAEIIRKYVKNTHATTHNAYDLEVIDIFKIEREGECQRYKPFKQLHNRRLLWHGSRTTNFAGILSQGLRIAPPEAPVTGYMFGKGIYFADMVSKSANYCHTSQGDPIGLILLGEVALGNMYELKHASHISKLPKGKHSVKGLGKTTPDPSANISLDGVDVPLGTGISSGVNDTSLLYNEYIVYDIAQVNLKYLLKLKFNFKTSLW
Sequence of Poly [ADP-ribose] polymerase 2 (Q9UGN5 whole entry): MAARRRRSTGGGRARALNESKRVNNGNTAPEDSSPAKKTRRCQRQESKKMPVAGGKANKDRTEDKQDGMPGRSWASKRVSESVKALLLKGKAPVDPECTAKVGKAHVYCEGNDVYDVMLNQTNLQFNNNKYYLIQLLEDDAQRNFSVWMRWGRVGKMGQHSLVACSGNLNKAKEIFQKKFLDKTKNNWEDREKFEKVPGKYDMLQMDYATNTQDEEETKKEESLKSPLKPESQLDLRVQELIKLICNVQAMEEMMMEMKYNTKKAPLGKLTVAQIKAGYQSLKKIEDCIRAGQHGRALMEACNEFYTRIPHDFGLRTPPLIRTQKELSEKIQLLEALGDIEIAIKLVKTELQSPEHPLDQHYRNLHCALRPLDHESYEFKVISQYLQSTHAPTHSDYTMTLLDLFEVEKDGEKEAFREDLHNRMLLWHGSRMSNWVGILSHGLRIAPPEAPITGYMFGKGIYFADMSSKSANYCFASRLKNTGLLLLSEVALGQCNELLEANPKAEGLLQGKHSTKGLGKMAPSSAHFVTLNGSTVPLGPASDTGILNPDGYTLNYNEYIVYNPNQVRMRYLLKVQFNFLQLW

CCc1cc2ncc(CN3CC=C(c4ccc(C#N)cn4)CC3)cc2[nH]c1=O
Tmax [1]: 8.33 h
IC50 [2]: 0.2 nM
IC50 [3]: 122 nM
inhibition at 0.1 µM (MDA-MB-436 [4]): 82.2%
CL [5]: 0.17 mL/min/kg
Vz [6]: 0.13 L/kg
Tmax [7]: 4.8 min
half-life [8]: 47.4 h
CL/F [9]: 0.167 mL/min/kg
Vz [10]: 0.33 L/kg
AUC(0-t) at 96 h [11]: 520 µg·h/mL
bioavailability [12]: 85.5%
IC50 [13]: 4.1 nM
IC50 [14]: 0.9 nM
inhibition (MDA-MB-436 [15]): Dose-dependent-effect
Activity (MDA-MB-436 [16]): 8.18%
Activity (MDA-MB-436 [17]): 9.92%
Activity (MDA-MB-436 [18]): 10.18%
Activity (MDA-MB-436 [19]): 9.37%
Activity (MDA-MB-436 [20]): 56.97%
Activity (MDA-MB-436 [21]): 53.32%
Activity (MDA-MB-436 [22]): 28.04%
Activity (MDA-MB-436 [23]): Dose-dependent-effect
Activity [24]: Non-toxic
Activity [25]: Non-toxic
Activity [26]: Non-toxic
Activity [27]: Non-toxic
Activity [28]: Non-toxic
Activity [29]: Non-toxic
Activity [30]: Non-toxic
Activity [31]: Non-toxic
Activity [32]: Non-toxic
Activity [33]: Non-toxic
Activity [34]: Non-toxic
Survival (MDA-MB-436 [35]): 70 days
